# Like-named read-outs stand apart in the source and are kept apart here. Marks after values point to notes of the source that are not given here.
# Assays:
# [1] = test system: arachidonic acid induced platelet aggregation; assay: platelet aggregation assay in platelet rich plasma; type: cell-based, New Zealand Rabbits; conditions: UP736 0
# Procedure: UP736, aspirin or combinations thereof were dissolved in 0.3% DMSO and incubated with the plasma at 37° C. for 5 minutes. Agonist or antagonist effect of the compounds was quantified by optical density of aggregation. Significance criteria used for agonist effect is that >50% platelet aggregation relative to arachidonic acid response. […] In this assay, various concentrations of UP736 (10, 2 and 0.2 μM) and aspirin (30 and 3 μM) were tested individually as either agonist or antagonist of platelet aggregation in platelet rich rabbit plasma. […] In another assay (Test# 2) performed under the same experimental conditions, mixtures of UP736 at lower concentrations (0.2, 0.067, 0.022 and 0.007 μM) and aspirin at a concentration of 3 μM were tested.
# bleeding time [2] = assay: bleeding time assay (Test #3, #4); type: in vivo, ICR male mice
# Procedure: The bleeding time assay was conducted according to the method described by […] and Kling (1997) Thrombosis Research 10:619-622) and Butler et al. (1982) Thromb Haemostas 47:46-49. Test articles were administered to five ICR male mice one hour before standardized transection of the tip (1.0 mm) of each tail. The mice restrained in holders were immediately suspended vertically with the tail tips immersed in a test tube containing saline at 37° C. There was no maximum cut-off time set. The measurements started as actual bleeding was observed and stopped as bleeding ceased for 15 seconds or longer at any time. Data were analyzed using the Student's t-test. In one assay (Test #3), aspirin alone at 3, 10, 65 and 100 mg/kg or UP736 at a dose of 100 mg/kg, alone or in combination with aspirin at 3, 10 and 65 mg/kg was administered orally to groups of 5 ICR male mice. […] The assay was repeated under the same experimental conditions (Test # 4).
# COX-2 = target: T1, COX-2 (Homo sapiens, UniProt P35354); assay: COX-2 enzymatic inhibition; type: biochemical
# T1 sequence (P35354 18-604): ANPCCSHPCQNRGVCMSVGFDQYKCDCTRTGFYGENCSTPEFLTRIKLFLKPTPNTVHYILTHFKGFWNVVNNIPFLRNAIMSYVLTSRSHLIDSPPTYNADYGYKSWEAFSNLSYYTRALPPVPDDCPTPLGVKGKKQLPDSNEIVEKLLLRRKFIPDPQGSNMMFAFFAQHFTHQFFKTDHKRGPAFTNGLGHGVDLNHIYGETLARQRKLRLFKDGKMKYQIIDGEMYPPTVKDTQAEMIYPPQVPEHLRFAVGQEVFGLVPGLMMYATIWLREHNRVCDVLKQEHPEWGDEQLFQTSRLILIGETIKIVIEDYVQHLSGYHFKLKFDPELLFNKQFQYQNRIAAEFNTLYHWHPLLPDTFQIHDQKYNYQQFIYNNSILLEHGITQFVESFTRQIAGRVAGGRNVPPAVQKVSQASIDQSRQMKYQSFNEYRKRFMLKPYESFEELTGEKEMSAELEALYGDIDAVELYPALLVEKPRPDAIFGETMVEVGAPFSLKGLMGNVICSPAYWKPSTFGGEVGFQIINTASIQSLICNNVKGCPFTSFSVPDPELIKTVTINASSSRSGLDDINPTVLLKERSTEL
# Excerpt: (§1) UP736 is a natural product derived from two traditional plants that contain antioxidants and other naturally occurring dietary compounds that aid the body in multiple ways.
# bleeding time [3] = test system: bleeding time; parameters: species or system ICR derived male mice; conditions: male, ICR, mouse, in vivo, po, 1 h
# Procedure: To verify the bleeding time results, UP736 or UP736 in combination with aspirin was tested again in an independent study (Test #5) using a modified procedure carried out. UP736 was administered orally at a dose of 100 mg/kg, alone or in combination with aspirin at 3, 10 and 30 mg/kg to groups of 5 ICR derived male mice, weighing 22±2 g, 1 hour before transection of the tip (0.3 mm) of each tail. In addition, aspirin alone at 3, 10, 30 and 100 mg/kg was similarly given to mice. The mice, in holders, were immediately suspended vertically with the distal 2 cm of each tail immersed in a test tube containing saline at 37° C. A maximum cut-off time of 180 seconds was set. If bleeding ceased for 15 seconds or longer at any time during the 180 seconds observation period, the measurements were discontinued and any subsequent bleeding would not be considered. Prolongation of bleeding time by 50 percent or more (50%) relative to a control group of animals was considered significant. The results are consistent with those obtained from the above-described experiments (Test #3 and # 4).
# COX-1 [4] = target: T2, COX-1 (Homo sapiens, UniProt P23219); conditions: cited from earlier work
# T2 sequence (P23219 24-599): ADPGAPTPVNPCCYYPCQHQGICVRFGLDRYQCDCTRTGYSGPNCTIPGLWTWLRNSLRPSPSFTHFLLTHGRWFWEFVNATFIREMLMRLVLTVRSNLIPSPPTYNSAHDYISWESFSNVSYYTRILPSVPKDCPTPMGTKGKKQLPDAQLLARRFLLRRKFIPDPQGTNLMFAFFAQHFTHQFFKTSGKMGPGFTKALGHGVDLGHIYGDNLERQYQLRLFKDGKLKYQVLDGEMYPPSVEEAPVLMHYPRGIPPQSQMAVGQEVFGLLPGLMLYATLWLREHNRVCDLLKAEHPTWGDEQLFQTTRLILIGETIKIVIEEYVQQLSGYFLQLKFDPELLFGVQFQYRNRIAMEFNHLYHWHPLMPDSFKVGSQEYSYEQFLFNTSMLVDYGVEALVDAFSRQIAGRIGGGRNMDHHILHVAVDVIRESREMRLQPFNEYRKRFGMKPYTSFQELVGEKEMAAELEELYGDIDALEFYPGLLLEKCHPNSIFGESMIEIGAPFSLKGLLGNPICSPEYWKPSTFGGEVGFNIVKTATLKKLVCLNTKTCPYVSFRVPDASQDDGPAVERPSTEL
# COX-1 [5] = target: T2, COX-1; assay: COX-1 enzymatic inhibition; type: biochemical
# Excerpt: as §1
# [6] = Oxygen Radical Absorption Capacity (ORAC)
# Excerpt: […]. However, it can be preserved by a number of preservatives, including but not limited to stannous chloride (SnCl2), sodium bisulfate/metabisulfite (SBS), and other preservatives.
# [7] = Test #3 (n = 5), 3 mg/kg orally
# [8] = Test #3 (n = 5), 10 mg/kg orally
# [9] = Test #3 (n = 5), 65 mg/kg orally
# [10] = Test #3 (n = 5), 100 mg/kg orally
# [11] = Test #3 and #4 combined (n = 9-10), 3 mg/kg orally
# [12] = Test #3 and #4 combined (n = 9-10), 10 mg/kg orally
# [13] = Test #3 and #4 combined (n = 9-10), 65 mg/kg orally
# [14] = Test #3 and #4 combined (n = 9-10), 100 mg/kg orally
# [15] = Test #4 (n = 5), 3 mg/kg orally
# [16] = Test #4 (n = 5), 10 mg/kg orally
# [17] = Test #4 (n = 5), 65 mg/kg orally
# [18] = Test #4 (n = 5), 100 mg/kg orally
molecule,measurement,setting,value
CC(=O)Oc1ccccc1C(=O)O [Aspirin],Agonist Effect,"[1]; Test #1, aspirin 3.0 μM",0%
same,Antagonist Effect,"[1]; Test #1, aspirin 3.0 μM",1%
same,Agonist Effect,"[1]; Test #1, aspirin 30.0 μM",0%
same,Antagonist Effect,"[1]; Test #1, aspirin 30.0 μM",100%
same,Agonist Effect,"[1]; Test #2, aspirin 3.0 μM",0%
same,Antagonist Effect,"[1]; Test #2, aspirin 3.0 μM",8%
same,% Change Relative to Vehicle Group,bleeding time [2]; [7],18.7 ↑ %
same,Average Bleeding Time ± SD,bleeding time [2]; [7],77.2 ± 13.0 s
same,% Change Relative to Vehicle Group,bleeding time [2]; [8],14.5 ↑ %
same,Average Bleeding Time ± SD,bleeding time [2]; [8],74.4 ± 15.4 s
same,% Change Relative to Vehicle Group,bleeding time [2]; [9],61.5* ↑ %
same,Average Bleeding Time ± SD,bleeding time [2]; [9],105 ± 15.1 s
same,% Change Relative to Vehicle Group,bleeding time [2]; [10],83* ↑ %
same,Average Bleeding Time ± SD,bleeding time [2]; [10],119 ± 14.0 s
same,% Change Relative to Vehicle Group,bleeding time [2]; [11],21.7 ↑ %
same,Average Bleeding Time ± SD,bleeding time [2]; [11],83.3 ± 12.6 s
same,% Change Relative to Vehicle Group,bleeding time [2]; [12],15.6 ↑ %
same,Average Bleeding Time ± SD,bleeding time [2]; [12],79.5 ± 13.1 s
same,% Change Relative to Vehicle Group,bleeding time [2]; [13],46.1 ↑ %
same,Average Bleeding Time ± SD,bleeding time [2]; [13],100.5 ± 11.9 s
same,% Change Relative to Vehicle Group,bleeding time [2]; [14],78.2 ↑ %
same,Average Bleeding Time ± SD,bleeding time [2]; [14],122.6 ± 13.9 s
same,% Change Relative to Vehicle Group,bleeding time [2]; [15],23.1 ↑ %
same,Average Bleeding Time ± SD,bleeding time [2]; [15],89.4 ± 9.7 s
same,% Change Relative to Vehicle Group,bleeding time [2]; [16],16.5 ↑ %
same,Average Bleeding Time ± SD,bleeding time [2]; [16],84.6 ± 9.0 s
same,% Change Relative to Vehicle Group,bleeding time [2]; [17],32.2* ↑ %
same,Average Bleeding Time ± SD,bleeding time [2]; [17],96 ± 6.4 s
same,% Change Relative to Vehicle Group,bleeding time [2]; [18],73.8* ↑ %
same,Average Bleeding Time ± SD,bleeding time [2]; [18],126.2 ± 14.3 s
same,COX-2 Selectivity Relative COX-1,COX-2,0.006
same,% Change Relative to Vehicle Group,bleeding time [3]; 3 mg/kg,0%
same,Average Bleeding Time ± SD,bleeding time [3]; 3 mg/kg,42.8 ± 26.2 s
same,% Change Relative to Vehicle Group,bleeding time [3]; 10 mg/kg,0%
same,Average Bleeding Time ± SD,bleeding time [3]; 10 mg/kg,39.8 ± 22.4 s
same,% Change Relative to Vehicle Group,bleeding time [3]; 30 mg/kg,27 ↑ %
same,Average Bleeding Time ± SD,bleeding time [3]; 30 mg/kg,56.4 ± 27.3 s
same,% Change Relative to Vehicle Group,bleeding time [3]; 100 mg/kg,70* ↑ %
same,Average Bleeding Time ± SD,bleeding time [3]; 100 mg/kg,75.0 ± 38.8 s
same,selective against COX-1,COX-1 [4],more than 150 times
CC1(C)Cc2c(-c3ccccc3)c(-c3ccc(Cl)cc3)c(CC(=O)O)n2C1 [Licofelone],COX-2 Selectivity Relative COX-1,COX-2,1
CS(=O)(=O)c1ccc(C2=C(c3ccccc3)C(=O)OC2)cc1 [Rofecoxib],COX-2 Selectivity Relative COX-1,COX-2,250
O=C(O)[C@H]1O[C@@H](Oc2cc3oc(-c4ccccc4)cc(=O)c3c(O)c2O)[C@H](O)[C@@H](O)[C@@H]1O [baicalin],IC50 for COX-1,COX-1 [5],0.44 μg/mL/unit of enzyme
same,IC50 for COX-2,COX-2,0.28 μg/mL/unit
same,selectivity against COX-2,COX-2; COX-1 vs COX-2 IC50 profile,twice
catechin,Oxygen Radical Absorption Capacity (ORAC),[6],"20,000"

# From patent publication US20060204596A1, “Formulation of a mixture of Free-B-Ring flavonoids and flavans as a therapeutic agent” (Unigen Pharmaceuticals, Inc., priority 2005, published 2006)
